The text below walks through data of article PMC9371265 (PLoS Pathogens, 2022).

This assay concerns the target T1, PrpN (Bacillus anthracis, UniProt A0A6L7HCQ6).
T1 construct: gene GBAA_0570

T1 sequence (A0A6L7HCQ6 1-234): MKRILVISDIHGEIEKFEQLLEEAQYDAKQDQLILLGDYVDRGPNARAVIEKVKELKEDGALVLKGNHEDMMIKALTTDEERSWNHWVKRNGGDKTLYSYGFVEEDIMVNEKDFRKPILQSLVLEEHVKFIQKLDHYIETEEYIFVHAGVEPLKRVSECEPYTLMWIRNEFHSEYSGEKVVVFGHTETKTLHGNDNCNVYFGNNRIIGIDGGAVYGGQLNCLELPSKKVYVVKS

Regarding `O=[N+]([O-])c1ccc(OP(=O)(O)O)cc1` [p-nitrophenyl phosphate], the “pNPP hydrolysis, absorbance at 405 nm” value was “determined spectrophotometrically using para-nitrophenyl phosphate-pNPP (Sigma-Aldrich) as substrate”.
